In US8921397B2, “Benzofurane-piperidine compounds” (Hoffmann-La Roche Inc., priority 2011, dated 2014):

Legend:
[1] = molecular target: human D2 receptor (Homo sapiens (Human), UniProt P14416); assay: Radioligand binding ([3H]-spiperone) to human D2 receptor, HEK293 EBNA membranes; conditions: HEK293 EBNA cells expressing human D2 receptor
Experimental: (§1) HEK293 EBNA cells were transiently transfected with expression plasmids encoding for the human D2 or D3 or for the human 5-HT2A receptor, respectively. The cells were harvested 48 h post-transfection, washed three times with cold PBS and stored at −80° C. prior to use. The pellet was suspended in cold 50 mM Tris-HCl buffer containing 10 mM EDTA (pH 7.4) and was homogenized with a Polytron (Kinematica AG, Basel, Switzerland) for 20-30 sec at 12.000 rpm. After centrifugation at 48.000×g for 30 min at 4° C., the pellet was resuspended in cold 10 mM Tris-HCl buffer containing 0.1 mM EDTA (pH 7.4), homogenized, and centrifuged as above. This pellet was further resuspended in a smaller volume of ice cold 10 mM Tris-HCl buffer containing 0.1 mM EDTA (pH 7.4) and homogenized with a Polytron for 20-30 sec at 12.000 rpm. The protein content of this homogenate was determined with the Bio-Rad (Bradford) Protein Assay (Biorad Laboratories GmbH, München, Germany) according to the instructions of the manufacturer using gamma globulin as the standard. This homogenate was stored at −80° C. in aliquots and thawed immediately prior to use.
(§2) Aliquots of membrane preparations were thawed at RT, resuspended in assay buffer (D2, D3: 50 mM Tris-HCl, 120 mM NaCl, 5 mM MgCl2, 1 mM EDTA, 5 mM KCl, 1.5 mM CaCl2, pH=7.4; 5-HT2A: 50 mM Tris-HCl, 10 mM MgCl2, 1 mM EGTA, pH=7.4), homogenized with a Polytron for 20-30 sec at 12.000 rpm and adjusted to a final concentration of approximately 7.5 μg protein/well (D2, D3) and 15 μg protein/well (5-HT2A), respectively.
(§3) The binding affinity (Ki) of the compounds was determined using radioligand binding.
(§4) Membranes were incubated in a total volume of 200 μl with a fixed concentration of radioligand (final concentration approximately 0.7 nM [^3H]-spiperone for D2, 0.5 nM [^3 H]-spiperone for D3, and 1.1 nM [^3H]-ketanserin for 5-HT2A) and ten concentrations of test compound in ranging between 10 μM-0.1 nM for 1 h at RT. At the end of the incubation, the reaction mixtures were filtered on to unifilter 96-well white microplates with bonded GF/C filters (Packard BioScience, Zürich, Switzerland; preincubated for 1 h in 0.1% polyethylenimine (PEI) in assay buffer) with a Filtermate 196 harvester (Packard BioScience) and washed 3 times with cold assay buffer. The nonspecific binding was determined with equally composed reaction mixtures in the presence of 10 μM unlabelled spiperone. Per well 45 μl of Microscint 40 (Perkin Elmer, Schwerzenbach, Switzerland) was added, plates for sealed, shaken for 20 min and counted for 3 min on a Topcount Microplate Scintillation Counter (Canberra Packard SA, Zürich, Switzerland) with quenching correction.
(§5) The CPM value for each duplicate of a concentration of competing compound was averaged (y1), then the % specific binding was calculated according to the equation (((y1−non-specific)/(total binding−non-specific))×100). Graphs were plotted with the % specific binding using XLfit, a curve-fitting program that iteratively plots the data using Levenberg-Marquardt algorithm. The single site competition analysis equation used was y=A+((B−A)/(1+((x/C)D))), where y is the % specific binding, A is the minimum y, B is the maximum y, C is the IC50, x is the log 10 of the concentration of the competing compound and D is the slope of the curve (the Hill Coefficient). From these curves the IC50 (inhibition concentration at which 50% specific binding of the radioligand was displaced) and Hill coefficient were determined. The affinity constant (Ki) was calculated using the Cheng-Prusoff equation Ki=(IC50/1+([L]/Kd), where [L] is the concentration of radioligand and Kd is the dissociation constant of the radioligand at the receptor as determined by the saturation isotherm.

[2] = molecular target: human D3 receptor (Homo sapiens (Human), UniProt P35462); assay: Radioligand binding ([3H]-spiperone) to human D3 receptor, HEK293 EBNA membranes; conditions: HEK293 EBNA cells expressing human D3 receptor
Sequence of human D3 receptor (P35462 whole entry): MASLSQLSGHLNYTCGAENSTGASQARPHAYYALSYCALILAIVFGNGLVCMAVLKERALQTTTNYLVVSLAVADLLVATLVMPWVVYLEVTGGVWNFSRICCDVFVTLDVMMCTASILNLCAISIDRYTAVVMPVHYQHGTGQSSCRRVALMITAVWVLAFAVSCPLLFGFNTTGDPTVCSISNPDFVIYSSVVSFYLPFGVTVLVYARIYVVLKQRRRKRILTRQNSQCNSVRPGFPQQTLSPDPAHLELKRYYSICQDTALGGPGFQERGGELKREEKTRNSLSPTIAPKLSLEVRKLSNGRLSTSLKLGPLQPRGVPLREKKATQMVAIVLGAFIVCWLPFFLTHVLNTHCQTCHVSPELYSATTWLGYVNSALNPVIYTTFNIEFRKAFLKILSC
Experimental: as §1, §2, §3, §4, §5

[3] = molecular target: human 5-HT2A receptor (Homo sapiens (Human), UniProt P28223); assay: Radioligand binding ([3H]-ketanserin) to human 5-HT2A receptor, HEK293 EBNA membranes; conditions: HEK293 EBNA cells expressing human 5-HT2A receptor
Sequence of human 5-HT2A receptor (P28223 whole entry): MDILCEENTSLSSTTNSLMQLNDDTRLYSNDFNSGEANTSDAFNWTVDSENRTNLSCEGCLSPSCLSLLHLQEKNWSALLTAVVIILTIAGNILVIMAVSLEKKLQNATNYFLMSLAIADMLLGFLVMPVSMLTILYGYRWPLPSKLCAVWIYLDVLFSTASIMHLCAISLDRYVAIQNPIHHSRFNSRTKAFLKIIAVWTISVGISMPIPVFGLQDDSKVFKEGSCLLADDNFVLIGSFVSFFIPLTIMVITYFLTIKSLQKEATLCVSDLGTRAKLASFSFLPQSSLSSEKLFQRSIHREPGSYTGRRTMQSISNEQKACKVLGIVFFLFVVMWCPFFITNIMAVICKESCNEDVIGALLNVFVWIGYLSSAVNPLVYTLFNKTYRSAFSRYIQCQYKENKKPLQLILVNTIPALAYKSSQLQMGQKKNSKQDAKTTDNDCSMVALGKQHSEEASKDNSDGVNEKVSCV
Experimental: The ability of the compounds to bind to the 5-HT2A, D3 and D2 receptors was determined using radioligand binding to cloned receptors selectively expressed in HEK-293 EBNA cells.
as §1, §2, §3, §4, §5

Sequence of human D2 receptor (P14416 whole entry): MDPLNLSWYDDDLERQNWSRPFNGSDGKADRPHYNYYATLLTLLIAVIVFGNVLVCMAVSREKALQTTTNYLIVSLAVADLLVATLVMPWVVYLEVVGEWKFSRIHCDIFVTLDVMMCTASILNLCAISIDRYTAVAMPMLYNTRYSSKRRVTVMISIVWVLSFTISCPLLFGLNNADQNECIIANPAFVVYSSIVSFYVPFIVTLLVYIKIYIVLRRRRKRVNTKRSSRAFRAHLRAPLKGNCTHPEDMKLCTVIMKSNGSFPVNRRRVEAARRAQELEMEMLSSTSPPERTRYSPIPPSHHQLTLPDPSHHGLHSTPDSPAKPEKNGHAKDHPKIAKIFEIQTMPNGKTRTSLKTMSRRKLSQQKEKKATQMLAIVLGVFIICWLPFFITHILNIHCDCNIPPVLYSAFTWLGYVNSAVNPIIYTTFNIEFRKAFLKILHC

Compound: CC(C)(O)C(=O)N[C@H]1CC[C@H](CCN2CCC(c3coc4ccccc34)CC2)CC1 [Example 16, trans-N-{4-[2-(4-Benzofuran-3-yl-piperidin-1-yl)-ethyl]-cyclohexyl}-2-hydroxy-2-methyl-propionamide]
- Ki [1]: 53.7 nM
- Ki [2]: 5.51 nM
- Ki [3]: 2.25 nM
- melting point: 169 °C

Compound: CC(C)Cc1ccc(C(=O)N[C@H]2CC[C@H](CCN3CCC(c4coc5ccccc45)CC3)CC2)cc1 [Example 80, trans-N-{4-[2-(4-Benzofuran-3-yl-piperidin-1-yl)-ethyl]-cyclohexyl}-4-isobutyl-benzamide]
- Ki [1]: 292 nM
- Ki [2]: 4.16 nM
- Ki [3]: 2.69 nM
- melting point: 190 °C

Compound: O=C(N[C@H]1CC[C@H](CCN2CCC(c3coc4ccccc34)CC2)CC1)c1ccnc2ccccc12 [Example 19, Quinoline-4-carboxylic acid trans-{4-[2-(4-benzofuran-3-yl-piperidin-1-yl)-ethyl]-cyclohexyl}-amide]
- Ki [1]: 96.7 nM
- Ki [2]: 3.36 nM
- Ki [3]: 8.7 nM
- melting point: 169 °C

Compound: O=C(N[C@H]1CC[C@H](CCN2CCC(c3coc4ccccc34)CC2)CC1)c1ccccc1 [Example 9, trans-N-{4-[2-(4-Benzofuran-3-yl-piperidin-1-yl)-ethyl]-cyclohexyl}-benzamide]
- Ki [1]: 32.3 nM
- Ki [2]: 1.34 nM
- Ki [3]: 4.36 nM
- melting point: 189 °C

Compound: O=CN[C@H]1CC[C@H](CCN2CCC(c3coc4ccccc34)CC2)CC1 [Example 56, trans-N-{4-[2-(4-Benzofuran-3-yl-piperidin-1-yl)-ethyl]-cyclohexyl}-formamide]
- Ki [1]: 38.8 nM
- Ki [2]: 2.68 nM
- Ki [3]: 13.4 nM
- melting point: 155 °C

Compound: CCS(=O)(=O)N[C@H]1CC[C@H](CCN2CCC(c3coc4ccccc34)CC2)CC1 [Example 37, Ethanesulfonic acid trans-{4-[2-(4-benzofuran-3-yl-piperidin-1-yl)-ethyl]-cyclohexyl}-amide]
- Ki [1]: 48 nM
- Ki [2]: 2.87 nM
- Ki [3]: 5.07 nM
- melting point: 153 °C

Compound: CC(C)(C)Oc1ccc(C(=O)N[C@H]2CC[C@H](CCN3CCC(c4coc5ccccc45)CC3)CC2)cc1 [Example 71, trans-N-{4-[2-(4-Benzofuran-3-yl-piperidin-1-yl)-ethyl]-cyclohexyl}-4-tert-butoxy-benzamide]
- Ki [1]: 168 nM
- Ki [2]: 2.14 nM
- Ki [3]: 5.56 nM
- melting point: 186 °C

Compound: CN(C)S(=O)(=O)N[C@H]1CC[C@H](CCN2CCC(c3coc4ccccc34)CC2)CC1 [Example 43, N′-(trans-4-{2-[4-(benzofuran-3-yl)-piperidin-1-yl]-ethyl}-cyclohexyl)-N,N-dimethylsulfamide]
- Ki [1]: 47 nM
- Ki [2]: 3.02 nM
- Ki [3]: 4.41 nM
- melting point: 229 °C

Compound: CC(C)=CC(=O)N[C@H]1CC[C@H](CCN2CCC(c3coc4ccccc34)CC2)CC1 [Example 53, 3-Methyl-but-2-enoic acid trans-{4-[2-(4-benzofuran-3-yl-piperidin-1-yl)-ethyl]-cyclohexyl}-amide]
- Ki [1]: 18 nM
- Ki [2]: 2.83 nM
- Ki [3]: 9.68 nM
- melting point: 147 °C

Compound: CC[C@H](O)CC(=O)N[C@H]1CC[C@H](CCN2CCC(c3coc4ccccc34)CC2)CC1 [Example 47, (S)-3-Hydroxy-pentanoic acid trans-{4-[2-(4-benzofuran-3-yl-piperidin-1-yl)-ethyl]-cyclohexyl}-amide]
- Ki [1]: 33.8 nM
- Ki [2]: 2.25 nM
- Ki [3]: 9.1 nM
- melting point: 140 °C

Compound: O=C(CCC(F)(F)F)N[C@H]1CC[C@H](CCN2CCC(c3coc4ccccc34)CC2)CC1 [Example 44, trans-N-{4-[2-(4-Benzofuran-3-yl-piperidin-1-yl)-ethyl]-cyclohexyl}-4,4,4-trifluoro-butyramide]
- Ki [1]: 61.2 nM
- Ki [2]: 2.94 nM
- Ki [3]: 15 nM
- melting point: 192 °C

Compound: O=C(CC1CC1)N[C@H]1CC[C@H](CCN2CCC(c3coc4ccccc34)CC2)CC1 [Example 25, trans-N-{4-[2-(4-Benzofuran-3-yl-piperidin-1-yl)-ethyl]-cyclohexyl}-2-cyclopropyl-acetamide]
- Ki [1]: 33.7 nM
- Ki [2]: 2.24 nM
- Ki [3]: 5.16 nM
- melting point: 165 °C

Compound: CCCCC(=O)N[C@H]1CC[C@H](CCN2CCC(c3coc4ccccc34)CC2)CC1 [Example 57, Pentanoic acid trans-{4-[2-(4-benzofuran-3-yl-piperidin-1-yl)-ethyl]-cyclohexyl}-amide]
- Ki [1]: 65.7 nM
- Ki [2]: 2.21 nM
- Ki [3]: 13 nM
- melting point: 167 °C

Compound: CCc1ccc(C(=O)N[C@H]2CC[C@H](CCN3CCC(c4coc5ccccc45)CC3)CC2)cc1 [Example 81, trans-N-{4-[2-(4-Benzofuran-3-yl-piperidin-1-yl)-ethyl]-cyclohexyl}-4-ethyl-benzamide]
- Ki [1]: 204 nM
- Ki [2]: 1.33 nM
- Ki [3]: 2.53 nM
- melting point: 192 °C

Compound: O=C(N[C@H]1CC[C@H](CCN2CCC(c3coc4ccccc34)CC2)CC1)C(F)(F)F [Example 39, trans-N-{4-[2-(4-Benzofuran-3-yl-piperidin-1-yl)-ethyl]-cyclohexyl}-2,2,2-trifluoro-acetamide]
- Ki [1]: 37.5 nM
- Ki [2]: 4.08 nM
- Ki [3]: 8.62 nM
- melting point: 152 °C

Compound: Cc1ccc(C(=O)N[C@H]2CC[C@H](CCN3CCC(c4coc5ccccc45)CC3)CC2)cn1 [Example 69, trans-N-{4-[2-(4-Benzofuran-3-yl-piperidin-1-yl)-ethyl]-cyclohexyl}-6-methyl-nicotinamide]
- Ki [1]: 28.1 nM
- Ki [2]: 2.53 nM
- Ki [3]: 5.11 nM
- melting point: 203 °C

Compound: CS(=O)(=O)c1ccc(C(=O)N[C@H]2CC[C@H](CCN3CCC(c4coc5ccccc45)CC3)CC2)cc1 [Example 86, trans-N-{4-[2-(4-Benzofuran-3-yl-piperidin-1-yl)-ethyl]-cyclohexyl}-4-methanesulfonyl-benzamide]
- Ki [1]: 79.5 nM
- Ki [2]: 25 nM
- Ki [3]: 5.79 nM
- melting point: 224 °C

Compound: O=C(N[C@H]1CC[C@H](CCN2CCC(c3coc4ccccc34)CC2)CC1)C1CCC(C(F)(F)F)CC1 (stereo partly drawn) [Example 79, 4-Trifluoromethyl-cyclohexanecarboxylic acid trans-{4-[2-(4-benzofuran-3-yl-piperidin-1-yl)-ethyl]-cyclohexyl}-amide]
- Ki [1]: 73 nM
- Ki [2]: 6.8 nM
- Ki [3]: 11.2 nM
- melting point: 190 °C

Compound: O=C(N[C@H]1CC[C@H](CCN2CCC(c3coc4ccccc34)CC2)CC1)c1ccc(C2CCCCC2)cc1 [Example 82, trans-N-{4-[2-(4-Benzofuran-3-yl-piperidin-1-yl)-ethyl]-cyclohexyl}-4-cyclohexyl-benzamide]
- D2 Ki [1]: inact.
- Ki [2]: 41.3 nM
- Ki [3]: 5.81 nM
- melting point: 230 °C

Compound: O=C(CO)N[C@H]1CC[C@H](CCN2CCC(c3coc4ccccc34)CC2)CC1 [Example 11, trans-N-{4-[2-(4-Benzofuran-3-yl-piperidin-1-yl)-ethyl]-cyclohexyl}-2-hydroxy-acetamide]
- Ki [1]: 46.5 nM
- Ki [2]: 1.47 nM
- Ki [3]: 4.92 nM
- melting point: 161 °C
